Patent US10494611B2, “Compositions comprising a mitofusin inhibitor for promoting cell reprogramming and a use thereof” (KOREA RESEARCH INSTITUTE OF BIOSCIENCE AND BIOTECHNOLOGY, priority 2014, dated 2019)
“Also recorded” adds a separate entry of the source. Blank lines part the entries; values can stand above or below the compound they belong to.

How the values were obtained:
MEFs [1] = assay: Reprogramming of MEFs by OSKM transduction, AP staining; format: cell-based, mouse
human Mfn1 promoter = assay: Human Mfn1 promoter reporter assay (luciferase) in 293T cells, REDOX library screening; format: cell-based; settings: 293T cells with human Mfn1 promoter reporter, 10 μM, 48 hours
Method: (§1) In one specific embodiment of the present invention, mouse and human Mfn1 promoter reporter (Genecopoeia) cells were prepared using Mfn1−/−MEFs and 293T cells, respectively, and a Screen-Well™ REDOX library containing the 84 compounds was treated at a concentration of 10 μM by for 48 hours.
(§2) Mfn1-KO MEFs were stably transfected with an Mfn1 promoter reporter construct (Genecopoeia) cells of mouse and human were produced using Mfn1−/− MEFs and 293T cells (human embryonic renal cells) and then treated with the Screen-Well™ REDOX library, containing 84 compounds, for 48 hours in a concentration of 10 nM to 10 μM. Mfn1 promoter activity was measured in the culture supernatants with the Secrete-Pair™ Dual Luminescence and Gaussia Luciferase Assay Kits (Genecopoeia) using a SpectraMax microplate reader.

MEFs [2] = assay: Mitochondrial morphology of reprogramming cultures (Mito-EYFP); format: cell-based, mouse; settings: OSKM, 50 μM Mdivi1, Mito-EYFP, D7
Method: Cells were fixed in 4% paraformaldehyde for 10 minutes at room temperature (RT) and then in MeOH for 15 minutes at −20° C., after which their permeability was increased with 0.3% Triton X-100 in PBS for 30 min and blocked with 4% BSA for 2 hours at RT. The samples were stained with the anti-Tom20 antibody diluted in a blocking buffer at 4° C. overnight. After washing, the cells were stained with Alexa 488-conjugated secondary antibodies (Invitrogen) for 45 minutes at RT. The nuclei were counterstained with 10 μg/ml DAPI. For live cell imaging, the cells were incubated with 200 nM MitoTracker® Red CMXRos (Invitrogen) for 30 minutes at 37° C. Florescent images were analyzed under an IX51 microscope (Olympus) or an Axiovert 200M microscope (Carl Zeiss).

mouse Mfn1 promoter = assay: Mouse Mfn1 promoter reporter assay (luciferase), REDOX library screening; format: cell-based; settings: Mfn1−/− MEFs carrying Mfn1 promoter reporter, 10 μM, 48 hours
Method: as §1, §2

SMILES: O=CC[C@@H](O)[C@H](O)[C@H](O)CO [2-DG, 2-deoxy-D-glucose]
- cellular reprogramming (AP+ colonies) with glycolysis inhibitor (MEFs [1]; OSKM reprogramming of MEFs, D11): substantially decreased

SMILES: CC1=C(C)C(=O)C(CC[C@](C)(O)CCC[C@H](C)CCC[C@H](C)CCCC(C)C)=C(C)C1=O [D-α-tocopheryl quinone]
- human Mfn1 promoter activity (relative luciferase activity) (human Mfn1 promoter): down-regulated; also recorded: best inhibit

SMILES: COc1cc(-n2c(=S)[nH]c3ccccc3c2=O)c(Cl)cc1Cl [Mdivi1]
- fragmented mitochondrial morphology of Mfn1−/− and Mfn2−/− MEFs (MEFs [2]): blocked
- higher reprogramming efficiency of Mfn1−/− and Mfn2−/− MEFs (MEFs [1]; OSKM, 50 μM Mdivi1, AP+ colonies D11): blocked

- mouse Mfn1 promoter activity (relative luciferase activity) (mouse Mfn1 promoter): top 2 upregulated
SMILES: Cc1coc2c1C(=O)C(=O)c1c-2ccc2c1CCCC2(C)C [Tanshinone IIA]

SMILES: C[C@]12C=CC(=O)C=C1CC[C@@H]1C2=CC[C@]2(C)[C@@H](C(=O)CN3CCN(c4cc(N5CCCC5)nc(N5CCCC5)n4)CC3)CC[C@@H]12.O=C(O)/C=C\C(=O)O [U74389G maleate, 21-[4-(2,6-di-1-pyrrolidinyl-4-pyrimidinyl)-1-piperazinyl]pregna-1,4,9[11]-triene-3,20-dione maleate]
- mouse Mfn1 promoter activity (relative luciferase activity) (mouse Mfn1 promoter; listed as 21-[4-(2,6-di-1-pyrrolidinyl-4-pyrimidinyl)-1-piperazinyl]pregna-1,4,9[11]-trien, maleate): top 3 downregulated
- mouse Mfn1 promoter activity (relative luciferase activity) (mouse Mfn1 promoter; maleate): down-regulated; also recorded: inhibited
- human Mfn1 promoter activity (relative luciferase activity) (human Mfn1 promoter; maleate): down-regulated; also recorded: best inhibit

- mouse Mfn1 promoter activity (relative luciferase activity) (mouse Mfn1 promoter): top 2 upregulated
SMILES: CN(C/C=C/C#CC(C)(C)C)Cc1cccc2ccccc12.Cl [erbinafine.HCl]

SMILES: CCCCCCCCCCCCCCCC(=O)OC/C=C(C)/C=C/C=C(C)/C=C/C1=C(C)CCCC1(C)C [retinyl palmitate]
- human Mfn1 promoter activity (relative luciferase activity) (human Mfn1 promoter): down-regulated; also recorded: best inhibit

- mouse Mfn1 promoter activity (relative luciferase activity) (mouse Mfn1 promoter): top 3 downregulated
- mouse Mfn1 promoter activity (relative luciferase activity) (mouse Mfn1 promoter; listed as tetramethyl pyrazine): down-regulated
SMILES: Cc1nc(C)c(C)nc1C [tetramethylpyrazine]
